Measured values taken from ChEMBL document CHEMBL1201862, “PubChem BioAssay data set” (2004).
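These data come from cells grown in 96-well plates and exposed to compound for 48 hours at five concentrations. The concentration for 50% growth inhibition is given as GI50.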 Calls of active or inactive are those of the source. Rule as the data show it: active = GI50 up to about 1.1 µM and inactive = higher.

What was measured:
Experiment in all cases: growth of human tumour cells (NCI), 48 h
786-0 = tested on: 786-0
A498 = tested on: A498
A549 = tested on: A549
BT-549 = tested on: BT-549
CAKI-1 = tested on: CAKI-1
CCRF-CEM = tested on: CCRF-CEM
COLO 205 = tested on: COLO 205
DU-145 = tested on: DU-145
EKVX = tested on: EKVX
HCC 2998 = tested on: HCC 2998
HCT-116 = tested on: HCT-116
HCT-15 = tested on: HCT-15
HL-60 = tested on: HL-60
HT-29 = tested on: HT-29
Hs-578T = tested on: Hs-578T
K562 = tested on: K562
KM12 = tested on: KM12
LOX IMVI = tested on: LOX IMVI
MCF7 = tested on: MCF7
MDA-MB-231 = tested on: MDA-MB-231
MDA-MB-435 = tested on: MDA-MB-435
MDA-N = tested on: MDA-N
MOLT-4 = tested on: MOLT-4
Malme-3M = tested on: Malme-3M
NCI-H226 = tested on: NCI-H226
NCI-H23 = tested on: NCI-H23
NCI-H460 = tested on: NCI-H460
NCI-H522 = tested on: NCI-H522
NCI/ADR-RES = tested on: NCI/ADR-RES
OVCAR-4 = tested on: OVCAR-4
OVCAR-8 = tested on: OVCAR-8
PC-3 = tested on: PC-3
RPMI-8226 = tested on: RPMI-8226
RXF 393 = tested on: RXF 393
SF-268 = tested on: SF-268
SF-539 = tested on: SF-539
SK-MEL-28 = tested on: SK-MEL-28
SK-MEL-2 = tested on: SK-MEL-2
SK-MEL-5 = tested on: SK-MEL-5
SK-OV-3 = tested on: SK-OV-3
SN12C = tested on: SN12C
SNB-19 = tested on: SNB-19
SNB-75 = tested on: SNB-75
SR = tested on: SR
SW-620 = tested on: SW-620
T47D = tested on: T47D
TK-10 = tested on: TK-10
U-251 = tested on: U-251
UACC-257 = tested on: UACC-257
UACC-62 = tested on: UACC-62
UO-31 = tested on: UO-31
ACHN = tested on: ACHN
HOP-62 = tested on: HOP-62
HOP-92 = tested on: HOP-92
IGROV-1 = tested on: IGROV-1
M14 = tested on: M14
OVCAR-3 = tested on: OVCAR-3
OVCAR-5 = tested on: OVCAR-5
SF-295 = tested on: SF-295

Measured: GI50

CSc1c(C#N)c(=O)n(N)c2[nH]nc(C)c12
inactive: 786-0 > 100 µM | A498 91.6 µM | A549 > 100 µM | BT-549 > 100 µM | CAKI-1 45.2 µM | CCRF-CEM > 100 µM | COLO 205 > 100 µM | DU-145 > 100 µM | EKVX > 100 µM | HCC 2998 > 100 µM | HCT-116 > 100 µM | HL-60 > 100 µM | HT-29 > 100 µM | Hs-578T > 100 µM | K562 > 100 µM | KM12 > 100 µM | LOX IMVI > 100 µM | MCF7 > 100 µM | MDA-MB-231 > 100 µM | MDA-MB-435 > 100 µM | MDA-N > 100 µM | MOLT-4 > 100 µM | Malme-3M > 100 µM | NCI-H226 > 100 µM | NCI-H23 > 100 µM | NCI-H460 > 100 µM | NCI-H522 > 100 µM | NCI/ADR-RES > 100 µM | OVCAR-4 > 100 µM | OVCAR-8 > 100 µM | PC-3 > 100 µM | RPMI-8226 > 100 µM | RXF 393 > 100 µM | SF-268 > 100 µM | SF-539 > 100 µM | SK-MEL-28 > 100 µM | SK-MEL-2 > 100 µM | SK-MEL-5 > 100 µM | SK-OV-3 > 100 µM | SN12C > 100 µM | SNB-19 > 100 µM | SNB-75 > 100 µM | SR > 100 µM | SW-620 > 100 µM | T47D > 100 µM | TK-10 > 100 µM | U-251 > 100 µM | UACC-257 > 100 µM | UACC-62 > 100 µM | UO-31 > 100 µM
> 100 µM: HCT-15

O=[N+]([O-])C(=C/c1cccc2ccccc12)/C(=C\c1cccc2ccccc12)[N+](=O)[O-]
inactive: 786-0 1.77 µM | A498 19.3 µM | A549 15.3 µM | ACHN 2.13 µM | BT-549 2.05 µM | CAKI-1 2.2 µM | COLO 205 3.44 µM | DU-145 2.84 µM | EKVX 3.4 µM | HCC 2998 2.42 µM | HCT-116 2.49 µM | HOP-62 2.74 µM | HOP-92 1.92 µM | HT-29 2.21 µM | Hs-578T 3.01 µM | IGROV-1 1.79 µM | K562 3.08 µM | KM12 4.23 µM | LOX IMVI 1.61 µM | M14 2.19 µM | MCF7 2.99 µM | MDA-MB-231 2.1 µM | MDA-MB-435 2.28 µM | MDA-N 2.62 µM | Malme-3M 2.07 µM | NCI-H226 4.85 µM | NCI-H23 1.98 µM | NCI-H460 2.34 µM | NCI-H522 1.37 µM | NCI/ADR-RES 2.51 µM | OVCAR-3 4.02 µM | OVCAR-4 2.91 µM | OVCAR-5 3.66 µM | OVCAR-8 2.42 µM | PC-3 5.24 µM | RPMI-8226 2.56 µM | RXF 393 1.99 µM | SF-268 2.32 µM | SF-295 2.58 µM | SF-539 2.21 µM | SK-MEL-28 1.83 µM | SK-MEL-2 9.73 µM | SK-MEL-5 2.9 µM | SK-OV-3 6.08 µM | SN12C 2.34 µM | SNB-19 4.51 µM | SNB-75 6.95 µM | SW-620 1.89 µM | T47D 3.07 µM | TK-10 2.17 µM | U-251 1.95 µM | UACC-257 2.32 µM | UACC-62 1.71 µM | UO-31 1.85 µM
active: CCRF-CEM 0.528 µM | MOLT-4 0.984 µM | SR 0.955 µM
1.9 µM: HCT-15

CCCC1NC(=O)C(CC(C)C)NC(=O)c2cccc(n2)C(=O)NC(CC(C)C)C(=O)NC(CCC)C(=O)NC(C(=O)OC)CCCCNC1=O (stereo not given)
inactive: 786-0 > 100 µM | A498 > 100 µM | A549 > 100 µM | BT-549 26.4 µM | CAKI-1 > 100 µM | CCRF-CEM 15.6 µM | COLO 205 40.6 µM | DU-145 > 100 µM | EKVX 20.3 µM | HCC 2998 11.1 µM | HCT-116 34 µM | HOP-62 81.3 µM | HOP-92 14.6 µM | HT-29 30.6 µM | Hs-578T 71.1 µM | IGROV-1 31.1 µM | K562 24 µM | KM12 27.3 µM | LOX IMVI 19.2 µM | M14 91 µM | MCF7 25.9 µM | MDA-MB-231 18.7 µM | MDA-MB-435 35.4 µM | MDA-N 36.9 µM | MOLT-4 18 µM | Malme-3M 21.7 µM | NCI-H226 25.6 µM | NCI-H23 47.9 µM | NCI-H460 > 100 µM | NCI/ADR-RES > 100 µM | OVCAR-3 41.7 µM | OVCAR-4 38.8 µM | OVCAR-5 > 100 µM | OVCAR-8 32.8 µM | PC-3 25.3 µM | RPMI-8226 14.3 µM | RXF 393 31.8 µM | SF-268 28.2 µM | SF-295 51.1 µM | SF-539 22 µM | SK-MEL-28 25.6 µM | SK-MEL-2 55 µM | SK-MEL-5 > 100 µM | SK-OV-3 27.2 µM | SN12C 34.4 µM | SNB-19 53.5 µM | SNB-75 16.5 µM | SR 29 µM | SW-620 34.8 µM | T47D 55 µM | TK-10 57.8 µM | U-251 32.4 µM | UACC-257 54.5 µM | UACC-62 21.2 µM | UO-31 > 100 µM
> 100 µM: HCT-15
